Experiment [1] relates to Pseudomonas aeruginosa NCTC-10490. The experiment is described as follows: antimicrobial activity, minimal inhibitory concentration (agar streak). Conditions: NCTC10490, heart infusion agar, 37° C., 20 hours, overnight culture 10^8 viable cells per ml. The class given is cell-based. As to the method:
(§1) One loopful of an overnight culture of each test strain in Trypticase-soy broth (10^8 viable cells per ml.) was streaked on heart infusion agar (HI-agar) containing graded concentrations of antibiotics, and the minimal inhibitory concentration (MIC) was expressed in terms of μg/ml after incubation at 37° C. for 20 hours.

Experiment [2] has as its system Staphylococcus aureus 6. Described as above. The class given is cell-based. Particulars: heart infusion agar, 37° C., 20 hours, overnight culture 10^8 viable cells per ml. As for the experimental part: as §1

Molecules are shown by their SMILES.

As usually defined, the MIC is the lowest concentration that inhibits growth of the organism. Lower therefore signals a more susceptible organism. Take `CC(C)(O)[C@@H]1C(=O)N2C(C(=O)[O-])=C(SCCN)C[C@H]12.[K+]` [potassium (5R,6R)-3-(2-aminoethylthio)-6-(1-hydroxy-1-methylethyl)-7-oxo-1-azabicyclo[3.2.0]hept-2-ene-2-carboxylate]: the MIC worked out at 12.5 µg/mL in experiment [1] and 1.56 µg/mL in experiment [2].

The values above are taken from patent US4539152A, “4-Substituted-2-oxoazetidine compounds” (Fujisawa Pharmaceutical Co., Ltd., priority 1980, dated 1985).
